Assay results published in ChEMBL document CHEMBL1641593, “Benzothieno[3,2-b]quinolinium and 3-(phenylthio)quinolinium compounds: Synthesis and evaluation against opportunistic fungal pathogens” (Bioorg Med Chem, 2011).
≈ marks a conversion by molar mass, not a printed value. Calls of active or inactive are those of the source. The calls are words filed in the database; no cut-off is given here.

How the values were obtained:
Aspergillus fumigatus [1] = assay: Antifungal activity against Aspergillus fumigatus ATCC 90906 by CLSI method; format: functional, organism-based
Vero = assay: Cytotoxicity against african green monkey Vero cells after 48 hrs by neutral red assay; format: cell-based; conditions: Chlorocebus sabaeus
Candida albicans [2] = assay: Antifungal activity against Candida albicans ATCC 90028 by CLSI method; format: functional, organism-based; conditions: Candida albicans, ATCC 90028
Cryptococcus neoformans [3] = assay: Antifungal activity against Cryptococcus neoformans ATCC 90113 by CLSI method; format: functional, organism-based
Pichia kudriavzevii = assay: Antifungal activity against Candida krusei ATCC 6258 by CLSI method; format: functional, organism-based
Aspergillus fumigatus [4] = assay: Antifungal activity against Aspergillus fumigatus ATCC 90906 at 20 ug/ml by CLSI method; format: functional, organism-based
Candida albicans [5] = assay: Antifungal activity against Candida albicans ATCC 90028 at 20 ug/ml by CLSI method; format: functional, organism-based
Mus musculus [6] = assay: Toxicity in Cryptococcus neoformans ATCC 52657 infected mouse assessed as change in gross pathology of spleen at 10 to 20 mg/kg, ip qd for 5 days; format: organism-based; design: dose 10-20 mg/kg, route intraperitoneal; conditions: in vivo, 120 h
Mus musculus [7] = assay: Toxicity in Cryptococcus neoformans ATCC 52657 infected mouse assessed as distension of duodenum at 20 mg/kg, ip qd for 5 days; format: organism-based; design: dose 20 mg/kg; conditions: in vivo, other, 120 h
Mus musculus [8] = assay: Toxicity in Cryptococcus neoformans ATCC 52657 infected mouse assessed as distension of jejunum at 10 mg/kg, ip qd for 5 days; format: organism-based; design: dose 10 mg/kg, route intraperitoneal; conditions: in vivo, 120 h
Mus musculus [9] = assay: Toxicity in Cryptococcus neoformans ATCC 52657 infected mouse assessed as pathological lesions at 10 mg/kg, ip qd for 5 days; format: organism-based; design: dose 10 mg/kg, route intraperitoneal; conditions: in vivo, 120 h
Mus musculus [10] = assay: Toxicity in Cryptococcus neoformans ATCC 52657 infected mouse assessed as distension of jejunum at 20 mg/kg, ip qd for 5 days; format: organism-based; design: dose 20 mg/kg, route intraperitoneal; conditions: in vivo, 120 h
Mus musculus [11] = assay: Toxicity in Cryptococcus neoformans ATCC 52657 infected mouse assessed as decrease in mobility at 10 to 20 mg/kg, ip qd for 5 days; format: organism-based; design: dose 10-20 mg/kg, route intraperitoneal; conditions: in vivo, 120 h
Mus musculus [12] = assay: Toxicity in Cryptococcus neoformans ATCC 52657 infected mouse assessed as decrease in mobility at 10 to 20 mg/kg, ip qd for 5 days after 2 hrs last post dose; format: organism-based; design: dose 10-20 mg/kg, route intraperitoneal; conditions: in vivo
Mus musculus [13] = assay: Toxicity in Cryptococcus neoformans ATCC 52657 infected mouse assessed as enlargement of liver with fusion of hepatic lobes at 20 mg/kg, ip qd for 5 days; format: organism-based; design: dose 20 mg/kg, route intraperitoneal; conditions: in vivo, 120 h
Mus musculus [14] = assay: Toxicity in Cryptococcus neoformans ATCC 52657 infected mouse assessed as change in body weight at 20 mg/kg, ip qd for 5 days; format: organism-based; design: dose 20 mg/kg, route intraperitoneal; conditions: in vivo, 120 h
Mus musculus [15] = assay: Toxicity in Cryptococcus neoformans ATCC 52657 infected mouse assessed as distension of cecum at 20 mg/kg, ip qd for 5 days; format: organism-based, Caecum; design: dose 20 mg/kg, route intraperitoneal; conditions: in vivo, 120 h
Mus musculus [16] = assay: Toxicity in Cryptococcus neoformans ATCC 52657 infected mouse assessed as change in body weight at 10 mg/kg, ip qd for 5 days; format: organism-based; design: dose 10 mg/kg, route intraperitoneal; conditions: in vivo, 120 h
Mus musculus [17] = assay: Toxicity in Cryptococcus neoformans ATCC 52657 infected mouse assessed as distension of duodenum at 10 mg/kg, ip qd for 5 days; format: organism-based; design: dose 10 mg/kg; conditions: in vivo, other, 120 h
Mus musculus [18] = assay: Toxicity in Cryptococcus neoformans ATCC 52657 infected mouse assessed as signs of discomfort at 10 to 20 mg/kg, ip qd for 5 days after 2 hrs last post dose; format: organism-based; design: dose 10-20 mg/kg, route intraperitoneal; conditions: in vivo
Mus musculus [19] = assay: Toxicity in Cryptococcus neoformans ATCC 52657 infected mouse assessed as signs of discomfort at 10 to 20 mg/kg, ip qd for 5 days; format: organism-based; design: dose 10-20 mg/kg, route intraperitoneal; conditions: in vivo, 120 h
Mus musculus [20] = assay: Toxicity in Cryptococcus neoformans ATCC 52657 infected mouse assessed as change in gross pathology of kidney at 10 to 20 mg/kg, ip qd for 5 days; format: organism-based; design: dose 10-20 mg/kg, route intraperitoneal; conditions: in vivo, 120 h
Mus musculus [21] = assay: Toxicity in Cryptococcus neoformans ATCC 52657 infected mouse assessed as distension of cecum at 10 mg/kg, ip qd for 5 days; format: organism-based, Caecum; design: dose 10 mg/kg, route intraperitoneal; conditions: in vivo, 120 h
Cryptococcus neoformans [22] = assay: Antifungal activity against Cryptococcus neoformans ATCC 90113 at 20 ug/ml by CLSI method; format: functional, organism-based

Structure (SMILES)	IC50 (Aspergillus fumigatus [1]) [µg/mL]	MIC (Aspergillus fumigatus [1]) [µg/mL]	IC50 (Vero) [µg/mL]	IC50 (Candida albicans [2]) [µg/mL]	MIC (Candida albicans [2]) [µg/mL]	IC50 (Cryptococcus neoformans [3]) [µg/mL]	MIC (Cryptococcus neoformans [3]) [µg/mL]	Activity (Candida albicans [5])	further results
[I-].c1ccc(Sc2cc3ccccc3[n+](CCCCCC3CCCCC3)c2)cc1	8.6	10	4.6	2.7	5	0.5	1.3	–	MFC (Aspergillus fumigatus [1]): > 20 µg/mL; MFC (Cryptococcus neoformans [3]): 2.5 µg/mL; IC50 (Pichia kudriavzevii): 0.7 µg/mL; MFC (Pichia kudriavzevii): 2.5 µg/mL; MIC (Pichia kudriavzevii): 1.3 µg/mL
C[n+]1c2ccccc2cc2[n-]c3ccccc3c21 [CRYPTOLEPINE]	–	–	3.2 (≈ 13.8 µM)	–	–	12.5 (≈ 53.8 µM)	–	–	–
C[n+]1c2cc(Cl)ccc2cc2sc3ccccc3c21.O=S(=O)([O-])C(F)(F)F	–	–	> 10	–	–	10	> 20	inactive	Activity (Aspergillus fumigatus [4]): inactive
C[n+]1c2ccccc2cc2sc3ccccc3c21.O=S(=O)([O-])C(F)(F)F	–	> 20	> 23.8	10	> 20	> 15	> 20	–	–
C[n+]1c2c(Cl)cccc2cc2sc3ccccc3c21.O=S(=O)([O-])C(F)(F)F	6	10	> 10	–	–	4	10	inactive	Activity (Mus musculus [6]): Non-toxic; Activity (Mus musculus [7]): Toxic; Activity (Mus musculus [8]): Toxic; Activity (Mus musculus [9]): Non-toxic; Activity (Mus musculus [10]): Toxic; Activity (Mus musculus [11]): Toxic; Activity (Mus musculus [12]): Non-toxic; Activity (Mus musculus [13]): Toxic; Activity (Mus musculus [14]): Toxic; Activity (Mus musculus [15]): Toxic; Activity (Mus musculus [16]): Non-toxic; Activity (Mus musculus [17]): Toxic; Activity (Mus musculus [18]): Non-toxic; Activity (Mus musculus [19]): Toxic; Activity (Mus musculus [20]): Non-toxic; Activity (Mus musculus [21]): Toxic
COc1cccc2c1cc1sc3ccccc3c1[n+]2C.O=S(=O)([O-])C(F)(F)F	0.8	1.3	> 4.7	15	> 20	–	–	–	–
COc1cccc2c1cc1sc3ccccc3c1[n+]2C.[I-]	1.5	2.5	–	15	> 20	–	–	–	–
COc1ccc2c(c1)sc1cc3ccccc3[n+](C)c12.[I-]	1	2.5	–	6	20	–	–	–	Activity (Cryptococcus neoformans [22]): inactive
C[n+]1cc(Sc2ccccc2)cc2ccccc21.[I-]	–	> 2.5	–	6	20	15	20	–	MFC (Aspergillus fumigatus [1]): 20 µg/mL; MFC (Candida albicans [2]; read-out: MFC): > 20 µg/mL; MFC (Cryptococcus neoformans [3]): > 20 µg/mL
C[n+]1c2cccc(Cl)c2cc2sc3ccccc3c21.O=S(=O)([O-])C(F)(F)F	3	10	–	–	–	–	–	inactive	Activity (Cryptococcus neoformans [22]): inactive
COc1ccc2sc3cc4ccccc4[n+](C)c3c2c1.[I-]	8	20	–	–	–	–	–	inactive	Activity (Cryptococcus neoformans [22]): inactive
C[n+]1c2ccccc2cc2sc3ccccc3c21.[I-]	–	> 20	> 23.8	–	7.8	–	> 20	–	–
